Which melting point does the source give for `CCCN(CCC)C(=O)CNc1nc(-c2ccccc2)ncc1CO` here?
The melting point was 167 to 168 °C.

Which melting point does the source give for `CCc1cn(C2CC(O)C(CNC(=O)C(C)S(=O)c3ccc(Cl)cc3Cl)O2)c(=O)[nH]c1=O` (mixture of isomers) here?
The melting point was 208 to 209 °C.

With `O=C(O)C1=Cc2cc(Cl)c(Oc3ccc(Cl)cc3)cc2OC1C(F)(F)F` (stereo not drawn) as the compound, how does the melting point read?
Its melting point is 205 to 206 °C.

Which melting point does the source give for `COc1ccc2c3c1OC1CCCC4(O)C(C2)N(C(=O)C2CCC2)CCC314` (stereo not drawn) here?
Its melting point is 140 °C.

With `CCNC(=O)c1ccc(COC(=O)c2ccc(OC)c(C(C)(C)C)c2)cc1` as the compound, how does the melting point read?
The melting point was 107 to 108 °C.

For `N#Cc1c(N2CCc3ccccc3CC2)nc(CO)n(CC(F)(F)F)c1=O`, which melting point is on record?
Its melting point is 181 to 185 °C.

With `COc1ccc(-c2csc(C(=O)O)n2)cc1OC` as the compound, how does the melting point read?
The melting point was 105 to 106 °C.

Which melting point does the source give for `O=C1CCCC1n1nc(-c2c(-c3ccccc3)nn3ccccc23)ccc1=O` (stereo not drawn) here?
Its melting point is 167 to 168 °C.

For `CCN1CC[C@@H]2CC(=O)c3cc(F)ccc3[C@@H]2C1` (relative stereo), which melting point is on record?
The melting point was > 220 °C.

With `CCc1nc2ccccc2c2ccc(F)cc12` as the compound, how does the melting point read?
The melting point was 105 to 106 °C.

Which melting point does the source give for `CNC(=N[N+](=O)[O-])NCCSCc1[nH]cnc1C` here?
Its melting point is 112 to 114 °C.

Which melting point does the source give for `CS(=O)Cc1ccc(C(=O)c2ccc(Cl)cc2)cc1` (stereo not drawn) here?
Its melting point is 116 to 118 °C.

With `O=C1c2ccccc2CN1CSc1ccncc1` as the compound, how does the melting point read?
The melting point was 131 to 132 °C.

Which melting point does the source give for `CC(=O)OC1CCC2(C)C(=CCC3C2CCC2(C)C(n4nccn4)=C(C=O)CC32)C1` (stereo not drawn) here?
The melting point was 145 to 148 °C.

Which melting point does the source give for `COc1cccc(OCCN2CCC(N(C)c3nccc(N(C)C)n3)CC2)c1` here?
The melting point was 105 °C.

With `COc1ccc2c(c1)c(OC(C)C)c(C(=O)Nc1ccccc1O)n2-c1ccccc1` as the compound, how does the melting point read?
Its melting point is 168 to 170 °C.

With `CCOC(=O)CCN1CCN(CC2CN(c3ccc(C(=N)NC(=O)c4ccccc4)cc3)C(=O)O2)CC1` (stereo not drawn) as the compound, how does the melting point read?
The melting point was 163 to 164 °C.

With `CN1C(=O)CC[C@]2(C)c3ccc(-c4ccc(S(C)(=O)=O)cc4)cc3CC[C@@H]12` as the compound, how does the melting point read?
The melting point was 229 °C.

Which melting point does the source give for `CCCc1nc2ccccc2n1Cc1ccc(C2=C(C(=O)O)CCC2)cc1` here?
Its melting point is 224 to 226 °C.

Which melting point does the source give for `COc1ccc2cc(C(=O)CNC(=O)c3cn(Cc4ccccc4)c4ccccc34)ccc2c1` here?
Its melting point is 177 to 179 °C.

For `Nc1cccc(-c2ccc(OCC3CNC3)c3ccccc23)n1`, which melting point is on record?
Its melting point is 88 to 110 °C.

For `CCCCn1c(=O)n(CCC)c(=O)c2c3n(nc21)CCCCN3C`, which melting point is on record?
Its melting point is 63 to 65 °C.

Which melting point does the source give for `Cc1cc(Cl)cc(C(=O)C(=O)O)c1NC(=O)c1cc(Br)nn1-c1ncccc1Cl` here?
Its melting point is 139 to 142 °C.

Which melting point does the source give for `Cc1ccc(-c2[nH]c(-c3ccc(C(F)(F)F)cc3)nc2C(=O)Nc2nccs2)s1` here?
The melting point was 235 to 237 °C.

For `CCCCNC(=O)C(O[Si](C)(C)C(C)(C)C)c1ccccc1Br` (stereo not drawn), which melting point is on record?
Its melting point is 38 to 39 °C.

Which melting point does the source give for `COC(=O)c1cc2ccc(OC)cc2n1CCN1CCC(NCc2cc3c(cn2)OCCO3)CC1` here?
Its melting point is 130 °C.

Which melting point does the source give for `CCc1ccc(COc2ccc(CC(NC(=O)c3cc4cc(-c5ccc(Cl)cc5)ccc4s3)C(=O)O)cc2)cc1` (stereo not drawn) here?
Its melting point is 205 °C.

Which melting point does the source give for `CC1(C)CC(c2ccccc2)=NC1=Cc1ccccc1` here?
The melting point was 101 to 103 °C.

For `N#CC(Br)c1ccc(Cl)cc1` (stereo not drawn), which melting point is on record?
Its melting point is 46 to 49 °C.

Which melting point does the source give for `O=C(c1ccc(Oc2ccc(S(=O)c3ccc(Oc4ccc(C(=O)C(Cl)(Cl)Cl)cc4)cc3)cc2)cc1)C(Cl)(Cl)Cl` here?
Its melting point is 154 to 156 °C.

With `COc1ccc2c(c1)C(=O)OC2=O` as the compound, how does the melting point read?
The melting point was 89 to 94 °C.

With `CCCn1c(-c2ccc(I)cc2)nc2cc(C#N)c(C#N)cc21` as the compound, how does the melting point read?
Its melting point is 208 to 209 °C.

With `C=CCn1c(NC)n[nH]c1=S` as the compound, how does the melting point read?
Its melting point is 129 to 131 °C.

Which melting point does the source give for `COC(=O)c1cc(C)cc(NC(=O)c2nnn[nH]2)c1O` here?
Its melting point is 238 to 240 °C.

With `Cc1c(N2CC(F)C(CN)C2)c(F)cc2c(=O)n(N)c(=O)n(C3CC3)c12` (stereo not drawn) as the compound, how does the melting point read?
The melting point was 170 to 172 °C.

Which melting point does the source give for `FC(F)(F)c1ccc(-c2cc(C(F)(F)F)n3cnc(-c4cccnc4)c3n2)cc1` here?
Its melting point is 231 °C.

With `Cc1ccccc1-c1c(NC(=O)Nc2c(C)cccc2C(C)C)c(=O)n(C)c2ccc(Cl)cc12` as the compound, how does the melting point read?
Its melting point is 195 to 196 °C.

Which melting point does the source give for `O=c1[nH][nH]c(C(F)(F)F)c1Cc1ccc2c(c1)OCO2` here?
The melting point was 196 to 197 °C.

With `O=P(O)(O)C(O)(CC1(c2ccc(Cl)cc2)C=CN(c2ccccc2)N1)P(=O)(O)O` (stereo not drawn) as the compound, how does the melting point read?
Its melting point is 199 °C.

Which melting point does the source give for `O=C(O)c1cn(C2CC2)c2cc(N3CCNC(c4ccco4)C3)c(F)cc2c1=O` (stereo not drawn) here?
Its melting point is 176 °C.

Which melting point does the source give for `O=S(=O)(c1ccccc1)C1CCCO1` (stereo not drawn) here?
Its melting point is 55.9 to 56.8 °C.

With `Cn1nc(-c2cccc(C(F)(F)F)c2)cc1C(=O)O` as the compound, how does the melting point read?
The melting point was 198 to 199 °C.

Which melting point does the source give for `N#Cc1cc(Oc2ccc(Cl)cc2Cl)c(O)cc1Cl` here?
The melting point was 145 to 150 °C.

With `COc1ccc(-c2nc(N)ncc2-c2ccc(=O)n(C(C)C)n2)cc1OC` as the compound, how does the melting point read?
Its melting point is 167 °C.

Which melting point does the source give for `CC(=O)CCC(=S)N(CC(=O)O)C1Cc2ccccc2C1` here?
Its melting point is 120 to 122 °C.

Which melting point does the source give for `CC(C)(C)OC(=O)C1(Cl)OC1c1ccc([N+](=O)[O-])cc1` (stereo not drawn) here?
The melting point was 60 °C.

For `CC(=O)N1CCC(c2nc(-c3ccncc3)c(-c3ccc(F)cc3)[nH]2)CC1`, which melting point is on record?
The melting point was 235 to 236 °C.

For `CCOc1nn(Cc2cccc(OCc3nc(-c4ccccc4)oc3C)n2)cc1CCC(=O)O`, which melting point is on record?
Its melting point is 144 to 145 °C.

With `CS(=O)(=O)c1ccc(-n2nc(C(F)(F)F)cc2-c2ccc(Br)cc2)cc1F` as the compound, how does the melting point read?
The melting point was 64 to 65 °C.

Which melting point does the source give for `CC(=O)Oc1c(C)cc(OCC(=O)c2ccc(C(C)C)cc2)c2ccccc12` here?
Its melting point is 105 to 106 °C.

With `O=C1O[C@@H](COc2cnsn2)CN1c1ccc(N2C[C@@H]3C[C@H]2CN3Cc2ccccc2)c(F)c1` as the compound, how does the melting point read?
The melting point was 97 to 98 °C.

Which melting point does the source give for `O=C(Nc1ccc(C(=O)N2Cc3cccn3Cc3ccccc32)cc1)c1sc2ccccc2c1Cl` here?
The melting point was 220 to 222 °C.

For `O=C1CC(c2cccc(-n3ccnc3)c2)=Nc2cc(OCCO)c(C#Cc3ccc(F)cc3)cc2N1`, which melting point is on record?
The melting point was 220 to 222 °C.

Which melting point does the source give for `CCC(CC)N(O)C(=O)Nc1ccc(Oc2ccccc2)cc1` here?
The melting point was 124 to 125 °C.

With `O=C1Nc2ccc(Cl)cc2C(c2ccccc2)=N[C@@H]1Cc1ccccc1` as the compound, how does the melting point read?
The melting point was 154 to 157 °C.

Which melting point does the source give for `CCCCC(=O)C(C)(C)N1COC(C)=C(c2ccccc2)C1=O` here?
Its melting point is 157 to 158 °C.

Which melting point does the source give for `COc1cc2ncn(CCCCCl)c(=O)c2cc1OC` here?
Its melting point is 117 °C.

Which melting point does the source give for `CCCCc1nc(Cl)c(CO)n1Cc1ccc(-c2cccc(C(=O)O)c2)cc1` here?
Its melting point is 180 to 181 °C.

For `COc1cc(C)c2c(c1)CCN2c1nc(Cl)cn(CCSC)c1=O`, which melting point is on record?
The melting point was 111 to 113 °C.

For `CC(=O)OCCCS(=O)(=O)c1ccc(S(N)(=O)=O)s1`, which melting point is on record?
Its melting point is 103 to 104 °C.

Which melting point does the source give for `O=C(Nc1ccc(-n2nc(C(F)(F)F)cc2Br)cc1)c1ccncc1F` here?
The melting point was 143 to 144 °C.

With `Cn1ncc(-c2ccc(O)cc2)cc1=O` as the compound, how does the melting point read?
Its melting point is 296 to 298 °C.

With `CC(C)OC12NC(=O)C(C)(C(C)C)N1C(=O)c1cccnc12` (stereo not drawn) as the compound, how does the melting point read?
The melting point was 158 to 160 °C.

Which melting point does the source give for `CC(=O)SCCC(=O)N1[C@@H](c2ccccc2O)SC[C@H]1C(=O)N(c1ccccc1)[C@@H](C)C(=O)OC(C)(C)C` here?
The melting point was 140 to 142 °C.

With `N#Cc1ccc(Oc2ccccc2Oc2ccc(C#N)cc2)cc1` as the compound, how does the melting point read?
The melting point was 112 °C.

With `COCCNC(=O)c1cccc(-c2cccc3cc(Cc4cccc(C(F)(F)F)c4)sc23)c1F` as the compound, how does the melting point read?
The melting point was 94 to 95 °C.

For `CC(O)COc1ccc2c(c1)c(-c1cc3cccnc3[nH]1)cn2C` (stereo not drawn), which melting point is on record?
The melting point was 198 to 199 °C.

With `O=C(Nc1nc(NC(=O)c2cccnc2)nc(NC(=O)c2cccnc2)n1)c1cccnc1` as the compound, how does the melting point read?
Its melting point is 276 to 278 °C.

From a melting point compilation (Tetko et al.; mined from patent text by program, amines drawn as free bases though some values may be those of a salt)
